Measured values: ChEMBL document CHEMBL3885881, “DrugMatrix”

Species: Rattus norvegicus
Experiment: DrugMatrix - Regimen: Daily Repeat
Format: toxicity, organism-based, Sprague-Dawley
Design: regimen Daily Repeat, gender Male, age 6-8 weeks
Conditions: in vivo, po, route oral GAVAGE, vehicle 100 % WATER; for ABSOLUTE BASOPHIL / ABSOLUTE EOSINOPHIL / ABSOLUTE LYMPHOCYTE / ABSOLUTE MONOCYTE / ABSOLUTE SEGMENTED NEUTROPHIL / BASOPHIL / EOSINOPHIL / ERYTHROCYTE COUNT / HEMATOCRIT / HEMOGLOBIN / LEUKOCYTE COUNT / LYMPHOCYTE / MEAN CORPUSCULAR HEMOGLOBIN / MEAN CORPUSCULAR HEMOGLOBIN CONCENTRATION / MEAN CORPUSCULAR VOLUME / MONOCYTE / NEUTROPHIL / NUCLEATED RED BLOOD CELLS / PLATELET COUNT: tissue Blood; for ALANINE AMINOTRANSFERASE / ALKALINE PHOSPHATASE / ASPARTATE AMINOTRANSFERASE / BLOOD UREA NITROGEN / CARBON DIOXIDE / CHLORIDE / CHOLESTEROL / CREATINE PHOSPHOKINASE / CREATININE / GLUCOSE / LACTATE DEHYDROGENASE / LIPASE / PHOSPHORUS / POTASSIUM / SODIUM / TOTAL BILIRUBIN / TOTAL PROTEIN / URIC ACID: tissue Plasma
[1] = 0 mg/kg, 72 h, dose level Control, time 3 day
[2] = 0 mg/kg, 120 h, dose level Control, time 5 day
[3] = 10 mg/kg, 72 h, dose level Low, time 3 day
[4] = 10 mg/kg, 120 h, dose level Low, time 5 day

**Q.** What does the source list for Cn1c(=O)c2[nH]cnc2n(C)c1=O.O [THEOPHYLLINE]?
**A.** ABSOLUTE BASOPHIL [1]: 0 CELLS/uL; ABSOLUTE EOSINOPHIL [1]: 168.33 CELLS/uL; ABSOLUTE LYMPHOCYTE [1]: 13654.17 CELLS/uL; ABSOLUTE MONOCYTE [1]: 121 CELLS/uL; ABSOLUTE SEGMENTED NEUTROPHIL [1]: 1223.17 CELLS/uL; BASOPHIL [1]: 0%; EOSINOPHIL [1]: 1.17%; ERYTHROCYTE COUNT [1]: 5.7 x10E6/uL; HEMATOCRIT [1]: 35.33%; HEMOGLOBIN [1]: 13.97 G/DL; LEUKOCYTE COUNT [1]: 15.17 x10E3/uL; LYMPHOCYTE [1]: 89.83%; MEAN CORPUSCULAR HEMOGLOBIN [1]: 24.53 pg; MEAN CORPUSCULAR HEMOGLOBIN CONCENTRATION [1]: 39.53 G/DL; MEAN CORPUSCULAR VOLUME [1]: 62.05 fL; MONOCYTE [1]: 0.83%; NEUTROPHIL [1]: 8.17%; NUCLEATED RED BLOOD CELLS [1]: 0 /100WBC; PLATELET COUNT [1]: 1312.17 x10E3/uL; ALANINE AMINOTRANSFERASE [1]: 50.83 u/L; ALKALINE PHOSPHATASE [1]: 334.17 u/L; ASPARTATE AMINOTRANSFERASE [1]: 82.17 u/L; BLOOD UREA NITROGEN [1]: 15.5 mg/dL; CARBON DIOXIDE [1]: 31.33 mmol/L; CHLORIDE [1]: 99.83 MEQ/L; CHOLESTEROL [1]: 76 mg/dL; CREATINE PHOSPHOKINASE [1]: 272.17 u/L; CREATININE [1]: 0.17 mg/dL; GLUCOSE [1]: 143 mg/dL; LACTATE DEHYDROGENASE [1]: 157.5 u/L; LIPASE [1]: 9.33 u/L; PHOSPHORUS [1]: 12.18 mg/dL; POTASSIUM [1]: 6.78 MEQ/L; SODIUM [1]: 143.9 MEQ/L; TOTAL BILIRUBIN [1]: 0.22 mg/dL; TOTAL PROTEIN [1]: 5.85 G/DL; URIC ACID [1]: 1.7 mg/dL; ABSOLUTE BASOPHIL [2]: 0 CELLS/uL; ABSOLUTE EOSINOPHIL [2]: 0 CELLS/uL; ABSOLUTE LYMPHOCYTE [2]: 13539.33 CELLS/uL; ABSOLUTE MONOCYTE [2]: 177.67 CELLS/uL; ABSOLUTE SEGMENTED NEUTROPHIL [2]: 2116.33 CELLS/uL; BASOPHIL [2]: 0%; EOSINOPHIL [2]: 0%; ERYTHROCYTE COUNT [2]: 5.78 x10E6/uL; HEMATOCRIT [2]: 36.13%; HEMOGLOBIN [2]: 14.1 G/DL; LEUKOCYTE COUNT [2]: 15.83 x10E3/uL; LYMPHOCYTE [2]: 85.83%; MEAN CORPUSCULAR HEMOGLOBIN [2]: 24.42 pg; MEAN CORPUSCULAR HEMOGLOBIN CONCENTRATION [2]: 39 G/DL; MEAN CORPUSCULAR VOLUME [2]: 62.55 fL; MONOCYTE [2]: 0.83%; NEUTROPHIL [2]: 13.33%; NUCLEATED RED BLOOD CELLS [2]: 0.17 /100WBC; PLATELET COUNT [2]: 1281.17 x10E3/uL; ALANINE AMINOTRANSFERASE [2]: 55.5 u/L; ALKALINE PHOSPHATASE [2]: 345 u/L; ASPARTATE AMINOTRANSFERASE [2]: 92.5 u/L; BLOOD UREA NITROGEN [2]: 16.5 mg/dL; CARBON DIOXIDE [2]: 26.5 mmol/L; CHLORIDE [2]: 103.5 MEQ/L; CHOLESTEROL [2]: 78.5 mg/dL; CREATINE PHOSPHOKINASE [2]: 381.5 u/L; CREATININE [2]: 0.21 mg/dL; GLUCOSE [2]: 161.83 mg/dL; LACTATE DEHYDROGENASE [2]: 487.5 u/L; LIPASE [2]: 10.17 u/L; PHOSPHORUS [2]: 11.83 mg/dL; POTASSIUM [2]: 6.4 MEQ/L; SODIUM [2]: 146.95 MEQ/L; TOTAL BILIRUBIN [2]: 0.22 mg/dL; TOTAL PROTEIN [2]: 6.22 G/DL; URIC ACID [2]: 1.83 mg/dL; ABSOLUTE BASOPHIL [3]: 0 CELLS/uL; ABSOLUTE EOSINOPHIL [3]: 319 CELLS/uL; ABSOLUTE LYMPHOCYTE [3]: 14175 CELLS/uL; ABSOLUTE MONOCYTE [3]: 161.67 CELLS/uL; ABSOLUTE SEGMENTED NEUTROPHIL [3]: 1511 CELLS/uL; BASOPHIL [3]: 0%; EOSINOPHIL [3]: 2%; ERYTHROCYTE COUNT [3]: 5.5 x10E6/uL; HEMATOCRIT [3]: 34.43%; HEMOGLOBIN [3]: 13.03 G/DL; LEUKOCYTE COUNT [3]: 16.17 x10E3/uL; LYMPHOCYTE [3]: 87.67%; MEAN CORPUSCULAR HEMOGLOBIN [3]: 23.7 pg; MEAN CORPUSCULAR HEMOGLOBIN CONCENTRATION [3]: 37.87 G/DL; MEAN CORPUSCULAR VOLUME [3]: 62.57 fL; MONOCYTE [3]: 1%; NEUTROPHIL [3]: 9.33%; NUCLEATED RED BLOOD CELLS [3]: 0 /100WBC; PLATELET COUNT [3]: 1231 x10E3/uL; ALANINE AMINOTRANSFERASE [3]: 51.33 u/L; ALKALINE PHOSPHATASE [3]: 320.67 u/L; ASPARTATE AMINOTRANSFERASE [3]: 113 u/L; BLOOD UREA NITROGEN [3]: 12.33 mg/dL; CARBON DIOXIDE [3]: 28.33 mmol/L; CHLORIDE [3]: 101.33 MEQ/L; CHOLESTEROL [3]: 94 mg/dL; CREATINE PHOSPHOKINASE [3]: 788.33 u/L; CREATININE [3]: 0.2 mg/dL; GLUCOSE [3]: 138.33 mg/dL; LACTATE DEHYDROGENASE [3]: 1127.33 u/L; LIPASE [3]: 9.67 u/L; PHOSPHORUS [3]: 11.8 mg/dL; POTASSIUM [3]: 6.43 MEQ/L; SODIUM [3]: 144.43 MEQ/L; TOTAL BILIRUBIN [3]: 0.2 mg/dL; TOTAL PROTEIN [3]: 5.7 G/DL; URIC ACID [3]: 1.63 mg/dL; ABSOLUTE BASOPHIL [4]: 0 CELLS/uL; ABSOLUTE EOSINOPHIL [4]: 162 CELLS/uL; ABSOLUTE LYMPHOCYTE [4]: 12014 CELLS/uL; ABSOLUTE MONOCYTE [4]: 120 CELLS/uL; ABSOLUTE SEGMENTED NEUTROPHIL [4]: 1804 CELLS/uL; BASOPHIL [4]: 0%; EOSINOPHIL [4]: 1%; ERYTHROCYTE COUNT [4]: 5.5 x10E6/uL; HEMATOCRIT [4]: 34.77%; HEMOGLOBIN [4]: 13.6 G/DL; LEUKOCYTE COUNT [4]: 14.1 x10E3/uL; LYMPHOCYTE [4]: 85.67%; MEAN CORPUSCULAR HEMOGLOBIN [4]: 24.7 pg; MEAN CORPUSCULAR HEMOGLOBIN CONCENTRATION [4]: 39.13 G/DL; MEAN CORPUSCULAR VOLUME [4]: 63.2 fL; MONOCYTE [4]: 1%; NEUTROPHIL [4]: 12.33%; NUCLEATED RED BLOOD CELLS [4]: 0 /100WBC; PLATELET COUNT [4]: 1229 x10E3/uL; ALANINE AMINOTRANSFERASE [4]: 56 u/L; ALKALINE PHOSPHATASE [4]: 334.33 u/L; ASPARTATE AMINOTRANSFERASE [4]: 113.67 u/L; BLOOD UREA NITROGEN [4]: 15 mg/dL; CARBON DIOXIDE [4]: 23.33 mmol/L; CHLORIDE [4]: 103.33 MEQ/L; CHOLESTEROL [4]: 77.33 mg/dL; CREATINE PHOSPHOKINASE [4]: 1028.67 u/L; CREATININE [4]: 0.23 mg/dL; GLUCOSE [4]: 151.33 mg/dL; LACTATE DEHYDROGENASE [4]: 644.67 u/L; LIPASE [4]: 9 u/L; PHOSPHORUS [4]: 11.9 mg/dL; POTASSIUM [4]: 5.95 MEQ/L; SODIUM [4]: 143.77 MEQ/L; TOTAL BILIRUBIN [4]: 0.2 mg/dL; TOTAL PROTEIN [4]: 5.97 G/DL; URIC ACID [4]: 1.33 mg/dL
